# In patent US20150250864A1, “ANTI-CANCER VACCINES” (Board of Regents, The University of Texas System, priority 2012, published 2015):
# Test system: IVS cells
# Test: IFN-γ ELISPOT of IVS cells stimulated with HERV-K SU or TM antigen
# Type: cell-based, human
# Conditions: ovarian cancer patient compared with normal female donor(s)
# Description: FIGS. 2A-D. IFN-γ ELISPOT was used to determine HERV-K-specific T cell response. (FIG. 2A) More spots (red box) were detected in IVS cells (DC+KSU) from an ovarian cancer patient with moderately to poorly differentiated adenocarcinoma, in comparison to three normal female donors (ND263559, 273010, and 273011; black boxes) stimulated with a single HERV-K SU protein. […] (FIG. 2B) More spots (red box for KSU and green box for KTM) were detected in IVS cells (DC+KSU) from an ovarian cancer patient (Acc 153) with high grade papillary serous carcinoma before surgery (0 month) or after surgery (6 months), compared to one normal donor (ND 273011) stimulated one time with HERV-K SU protein. IVS cells were generated from PBMC stimulated with a single HERV-K SU or TM antigen. No spot was detected in controls using KLH as antigen. (FIG. 2C) IFN-γ spots were detected in IVS cells (1×10^5 cells loaded) from cancer patients (#816463 and #618329: blood collected 6 months after surgery) but not in a breast cancer patient with invasive ductal carcinoma (#814349, collected 6 months after surgery) or a patient (717335) with a mass (no malignancy identified), stimulated one time with either HERV-K SU (surface domain of env protein) or TM (transmembrane domain) protein. DC pulsed with KLH served as control. […]
substance,measurement,value
keyhole limpet hemocyanin [KLH],number of IFN-γ spots in IVS cells,No spots were detected
